We go through 23 compounds from patent US6891043B2, “Inhibitors of fatty acid amide hydrolase” (The Scripps Research Institute, priority 2000, dated 2005).

The target of series [1] is T1, FAAH (Rattus norvegicus, UniProt P97612).
T1 construct: using a solubilized liver plasma membrane extract containing FAAH; from tissue; host or cells: liver (solubilized plasma membrane extract)
T1 sequence (P97612 1-579): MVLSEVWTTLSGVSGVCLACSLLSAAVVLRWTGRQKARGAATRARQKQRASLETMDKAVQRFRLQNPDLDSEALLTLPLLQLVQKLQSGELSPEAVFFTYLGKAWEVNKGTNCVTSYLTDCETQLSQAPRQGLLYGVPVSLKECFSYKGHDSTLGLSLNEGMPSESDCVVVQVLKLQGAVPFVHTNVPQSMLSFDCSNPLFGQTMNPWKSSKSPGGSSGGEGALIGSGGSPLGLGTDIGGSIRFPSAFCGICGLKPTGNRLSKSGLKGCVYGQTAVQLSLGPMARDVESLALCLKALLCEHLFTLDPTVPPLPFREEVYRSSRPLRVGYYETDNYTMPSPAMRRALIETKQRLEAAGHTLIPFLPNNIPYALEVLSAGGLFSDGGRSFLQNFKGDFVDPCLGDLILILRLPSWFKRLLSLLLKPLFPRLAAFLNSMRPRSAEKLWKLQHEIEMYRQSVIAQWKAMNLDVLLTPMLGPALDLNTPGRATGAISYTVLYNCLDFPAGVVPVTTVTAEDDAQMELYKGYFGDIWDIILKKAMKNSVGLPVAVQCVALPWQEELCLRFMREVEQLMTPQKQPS
Description: FAAH inhibition: breakdown of 14C-oleamide to oleic acid, solubilized liver plasma membrane extract. The series is classed as biochemical. The conditions noted are these: for Ki: Dixon method, 14C-oleamide substrate, pH 9.0, 20-23° C., read-out: K1. Here is the method: K1 values were determined by the Dixon method α-intercepts of weighted linear fits of […] plots at constant substrate concentration, which were converted to K1 values using the formula K1=−xint/[1+[S]/Km]).

Series [2] deals with T2, FAAH (Homo sapiens, UniProt O00519).
T2 sequence (O00519 1-579): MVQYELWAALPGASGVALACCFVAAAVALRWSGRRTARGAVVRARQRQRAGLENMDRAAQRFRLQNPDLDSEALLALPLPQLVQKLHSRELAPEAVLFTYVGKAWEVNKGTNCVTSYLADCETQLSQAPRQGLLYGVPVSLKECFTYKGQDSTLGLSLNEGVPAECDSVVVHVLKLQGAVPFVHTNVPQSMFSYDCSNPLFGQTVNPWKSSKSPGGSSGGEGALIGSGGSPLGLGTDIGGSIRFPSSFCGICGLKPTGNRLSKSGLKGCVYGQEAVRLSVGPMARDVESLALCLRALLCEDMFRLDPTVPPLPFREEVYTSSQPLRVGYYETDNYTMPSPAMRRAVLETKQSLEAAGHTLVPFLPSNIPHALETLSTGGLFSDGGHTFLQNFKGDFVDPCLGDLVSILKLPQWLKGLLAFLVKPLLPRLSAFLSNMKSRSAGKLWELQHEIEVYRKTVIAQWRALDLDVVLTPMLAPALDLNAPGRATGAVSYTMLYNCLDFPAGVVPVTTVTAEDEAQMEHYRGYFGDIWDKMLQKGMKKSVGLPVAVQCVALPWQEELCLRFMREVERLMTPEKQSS
As to conditions: FAAH substrate preference; cited from earlier work.

In another series the test system is treated animals. As to the kind of experiment: In vivo sleep study with 17 (wakefulness, SWS2, REM sleep). As to conditions: 10 mg/kg ip, first 4 h of administration, versus controls. The text has this:
The in vivo properties of the inhibitors detailed herein and their action on the identified oleamide and anandamide potential sites of action are presented herein. […] Accordingly, the inhibitors disclosed herein are useful as inhibitors of FAAH and related amidases, and as a therapeutic agents with applications as sleep aids or analgesics which act by preserving endogenous levels of oleamide and anandamide.

“Also recorded” adds a separate entry of the source.

For orientation: melting point means the temperature of the solid-liquid transition.

As for `CCCCCCC(=O)c1nc2ncccc2o1` [compound 47, 1-(Oxazolo[4,5-b]pyridin-2-yl)-1-oxo-heptane], the melting point was in the range of 52 to 53 °C.

Compound `CCCCCCCCCCCCCCCC(=O)c1nc2ncccc2o1` [compound 42, 1-(Oxazolo[4,5-b]pyridin-2-yl)-1-oxo-hexadecane] gave a melting point of 77 to 78 °C.

`O=C(CCCCCCCc1ccccc1)c1nc2ncccc2o1` [compound 55, 1-(Oxazolo[4,5-b]pyridin-2-yl)-1-oxo-8-phenyloctane] came in with a melting point of 70 to 73 °C.

Compound `CCCCCCCCCC(=O)c1nc2ncccc2o1` [compound 45, 1-(Oxazolo[4,5-b]pyridin-2-yl)-1-oxo-decane] came in with a melting point of 60 to 62 °C.

For the compound `CCCCCCCC/C=C/CCCCCCCC(=O)c1cccnn1` [compound 35, 1-Oxo-1-(3-pyridazinyl)-9(E)-octadecene], the “FAAH inhibitor potency / activity in words” value on FAAH [1] is “more potent than 34 and 36”.

For the compound `CCCCCCCCCCCCCCCCCCc1nc2ncccc2o1` [compound 61, 1-(Oxazolo[4,5-b]pyridin-2-yl)octadecane], the melting point lay within 84 to 85 °C. For the same compound, the “FAAH inhibitor potency / activity in words” value at FAAH [1] is “inactive”. In addition, at FAAH [1] (versus α-hydroxy compound), the “additional fold loss of binding affinity with removal of the alcohol” value is on record as 10^2 fold. Besides, the “fold loss of binding affinity / potency with removal of the keto group” value at FAAH [1] (versus α-keto compound) is listed as 10^5 fold.

In turn, `CCCCCCCCCCCCCC(=O)c1nc2ncccc2o1` [compound 43, 1-(Oxazolo[4,5-b]pyridin-2-yl)-1-oxo-tetradecane] came in with a melting point of 73 to 74 °C.

For `CC(=O)c1nc2ncccc2o1` [compound 50, 1-(Oxazolo[4,5-b]pyridin-2-yl)-1-oxo-ethane], the melting point is 103 to 105 °C.

For the compound `CCCCCCCC/C=C/CCCCCCCC(=O)c1nc2ncccc2o1` [compound 33, 1-(Oxazolo[4,5-b]pyridin-2-yl)-1-oxo-9(E)-octadecene], at FAAH [1], the “FAAH inhibitor potency / activity in words” value was “more potent than 34 and 36”.

In turn, `O=C(CCCCCCc1ccccc1)c1nc2ncccc2o1` [compound 54, 1-(Oxazolo[4,5-b]pyridin-2-yl)-1-oxo-7-phenylheptane] gave a melting point of 60 to 61 °C.

As for `CCCCC/C=C\C/C=C\C/C=C\C/C=C\CCCC(N)=O` [arachidonamide], the “rel. rate of hydrolysis” value at FAAH [2] is on record as 1.

In the case of `CCCCCC(=O)c1nc2ncccc2o1` [compound 48, 1-(Oxazolo[4,5-b]pyridin-2-yl)-1-oxo-hexane], the melting point lay within 51 to 53 °C.

For `CCCCCCCC/C=C\CCCCCCCC(=O)c1nc2cccc(C)c2o1` [compound 28, 1-(7-Methylbenzoxazol-2-yl)-1-oxo-9(Z)-octadecene], the “FAAH inhibitor potency / activity in words” value on FAAH [1] is reported as “greatly diminished”.

`CCCCCCCC/C=C\CCCCCCCC(=O)c1nnn(C)n1` [compound 14, 1-(2-Methyl-2H-tetrazol-5-yl)-1-oxo-9(Z)-octadecene]: on FAAH [1], the “FAAH inhibitor potency / activity in words” value is “matched the potency of the trifluoromethyl ketone 3”.

With `CCCCCCCC/C=C\CCCCCCCC(=O)c1nc2ncccc2o1` [compound 29, 1-(Oxazolo[4,5-b]pyridin-2-yl)-1-oxo-9(Z)-octadecene], the “FAAH inhibitor potency / activity in words” value on FAAH [1] is “most potent inhibitor; also recorded: more potent than 33 and 35, respectively”.

`CCCCCCCCCCCC(O)c1nc2ncccc2o1` (stereo not shown) [compound 60, 1-Hydroxy-1-(oxazolo[4,5-b]pyridin-2-yl)dodecane]: on FAAH [1], the Ki worked out at 1200 nM. At FAAH [1] (α-hydroxy versus α-keto), the “times less potent than the corresponding keto derivative (reduction to alcohol)” value is “approximately 10^3 times”.

In the case of `CCCCCCCC/C=C\CCCCCCCC(=O)c1nc2ccccc2o1` [compound 23, 1-(2-Benzoxazolyl)-1-oxo-9(Z)-octadecene], the “FAAH inhibitor potency / activity in words” value at FAAH [1] is on record as “more potent than 37”.

`CCCCCCCC/C=C\CCCCCCCC(=O)c1cccnn1` [compound 17, 1-Oxo-1-(3-pyridazinyl)-9(Z)-octadecene]: at FAAH [1], the “FAAH inhibitor potency / activity in words” value was “more potent than 33 and 35, respectively”. For the same compound, in the series on treated animals, the “decrease of time spent in wakefulness, of the total time” value is 14%; the “increase of time spent in REM sleep” value was 75%; the “increase of time spent in REM sleep, of total time” value is 4%; the “increase of time spent in SWS2” value came out at 45%. For the same compound, in the series on treated animals, the “increase of time spent in SWS2, of the total time” value stood at 10% and the “reduction of time spent in wakefulness” value was found to be 20%.

`CCCCCCCC(=O)c1nc2ncccc2o1` [compound 46, 1-(Oxazolo[4,5-b]pyridin-2-yl)-1-oxo-octane] came in with a melting point of 60 to 61 °C.

Regarding `CCCCCCCCCCCC(=O)c1nc2ncccc2o1` [compound 44, 1-(Oxazolo[4,5-b]pyridin-2-yl)-1-oxo-dodecane], the melting point is 68 to 69 °C.

`O=C(CCCCCc1ccccc1)c1nc2ncccc2o1` [compound 53, 1-(Oxazolo[4,5-b]pyridin-2-yl)-1-oxo-6-phenylhexane] gave a melting point of 61 to 63 °C. Also, the Ki at FAAH [1] was < 0.2 nM.

`CCCCCCCC/C=C\CCCCCCCC(N)=O` [oleamide]: on FAAH [2], the “rel. rate of hydrolysis” value is on record as 0.7.

For `CCCCC(=O)c1nc2ncccc2o1` [compound 49, 1-(Oxazolo[4,5-b]pyridin-2-yl)-1-oxo-pentane], the melting point lay within 35 to 37 °C.
